# According to the supplement of paper PMC10307832:
# Experiments:
# Assay in all cases: relative viability (nuclei count vs DMSO), 5 days (fraction); higher = more cells survive
# [1] = compound: C1CC1C(=O)NC2=NNC3=C2C=CC(=C3)C4=CC(=CC=C4)C(=O)NC5CC5 [XMD13-2] + Cc1nc(NC(=O)N2CCC[C@H]2C(N)=O)sc1-c1ccnc(C(C)(C)C(F)(F)F)c1 [Alpelisib] (partner 2 µM)
# Procedure, shortened: (§1)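 Lung cancer cell lines, seeded in 1536-well plates, were treated the following day by pin tool with a single drug or with five library-drug doses (not always all listed) in √10 steps on top of a fixed anchor-drug dose. Cells were fixed and nuclei stained in one step after 5 days, and nuclei were counted. Relative viability is the nuclei count for treated wells divided by that for vehicle wells, reported as medians of duplicate plates.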
# [2] = compound: C1CC1C(=O)NC2=NNC3=C2C=CC(=C3)C4=CC(=CC=C4)C(=O)NC5CC5 [XMD13-2] + CC1(C)CCC(c2ccc(Cl)cc2)=C(CN2CCN(c3ccc(C(=O)NS(=O)(=O)c4ccc(N[C@H](CCN5CCOCC5)CSc5ccccc5)c(S(=O)(=O)C(F)(F)F)c4)cc3)CC2)C1 [Navitoclax] (partner 0.5 µM)
# Procedure, shortened: as §1
# [3] = compound: Cc1ccc(C(=O)Nc2cccc(C(F)(F)F)c2)cc1Nc1cncc(C(N)=O)c1 [ALW-II-49-7] + NC(=O)Nc1cc(-c2cccc(F)c2)sc1C(=O)N[C@H]1CCCNC1 [AZD7762] (partner 0.2 µM)
# Procedure, shortened: as §1
# [4] = compound: Cc1ccc(C(=O)Nc2cccc(C(F)(F)F)c2)cc1Nc1cncc(C(N)=O)c1 [ALW-II-49-7] + O=C(CCCCCCC(=O)Nc1ccccc1)NO [Vorinostat] (partner 1 µM)
# Procedure, shortened: as §1
Cell Line,relative viability ([1]; first compound 0.05 µM),relative viability ([1]; first compound 0.1581 µM),relative viability ([1]; first compound 0.5 µM),relative viability ([1]; first compound 1.581 µM),relative viability ([1]; first compound 5 µM),relative viability ([2]; first compound 0.05 µM),relative viability ([2]; first compound 0.1581 µM),relative viability ([2]; first compound 0.5 µM),relative viability ([2]; first compound 1.581 µM),relative viability ([2]; first compound 5 µM),relative viability ([3]; first compound 0.08 µM),relative viability ([3]; first compound 0.253 µM),relative viability ([3]; first compound 0.8 µM),relative viability ([3]; first compound 2.53 µM),relative viability ([3]; first compound 8 µM),relative viability ([4]; first compound 0.08 µM),relative viability ([4]; first compound 0.253 µM),relative viability ([4]; first compound 0.8 µM),relative viability ([4]; first compound 2.53 µM),relative viability ([4]; first compound 8 µM)
LC-2-ad,0.983,0.887,0.939,0.938,0.79,0.772,0.503,0.519,0.368,0.375,0.844,0.824,0.756,0.805,0.93,0.681,0.763,0.691,0.698,0.528
NCI-H596,0.624,0.543,0.407,0.587,0.0287,0.99,0.975,0.917,0.898,1.15,1.15,1.23,1.12,1.14,1.24,0.488,0.574,0.586,0.683,0.456
SW 1573,1.03,0.711,1.01,0.676,0.666,1.54,1.27,0.94,0.876,0.88,,,,,,0.612,0.663,0.652,0.648,0.567
NCI-H2228,0.768,0.716,0.771,0.772,0.655,1.15,0.949,0.643,0.668,0.841,,,,,,0.534,0.414,0.513,0.674,0.49
NCI-H1650,,,,,,1.07,1.05,0.993,1.33,1.52,,,,,,0.518,0.656,0.563,0.524,0.576
NCI-H358,1.06,0.774,0.843,0.822,0.529,,,,,,0.51,0.711,0.405,,0.524,1,0.694,0.805,0.574,0.447
NCI-H1792,0.845,0.691,0.745,0.845,0.821,0.746,0.591,0.715,0.491,0.886,0.836,0.621,0.591,0.745,0.454,,,,,
COR-L 105,1.06,1.36,0.984,0.964,0.945,0.818,0.761,1.25,0.684,0.872,,,,,,0.772,0.911,0.688,0.809,0.967
NCI-H650,1.21,1.2,1.43,1.18,1.15,,,,,,1.02,0.967,1.05,0.866,0.678,0.351,0.461,0.579,0.42,0.374
Calu-6,1.02,0.948,1.04,0.923,0.757,0.915,0.829,0.808,0.776,0.548,,,,,,,,,,
NCI-H2009,1.23,1.14,1.22,1.15,1.23,1.22,1.15,1.22,1.14,1.21,,,,,,0.749,0.838,0.731,0.695,0.657
LCLC-103H,0.91,0.979,0.981,0.959,0.851,,,,,,0.742,0.817,0.756,0.649,0.656,0.79,0.763,0.658,0.71,0.618
NCI-H1299,1.08,1.08,1.09,1.08,1.09,1.04,1.03,1.06,1.03,1.09,,,,,,,,,,
ChaGo-K-1,,,,,,1.06,0.882,0.799,,0.942,0.94,0.996,0.882,0.768,0.807,0.744,0.75,0.713,0.689,0.83
NCI-H1703,0.356,0.405,0.292,0.279,0.406,1.59,1.19,1.24,0.889,1.16,0.124,0.132,0.116,,0.127,,,,,
NCI-H522,,,,,,,,,,,0.787,0.842,0.754,0.83,0.934,0.824,1.04,0.824,0.834,0.94
ABC-1,1.29,1.15,0.893,0.928,0.998,,,,,,0.914,0.563,0.915,,0.668,1.05,1.2,1.13,0.78,1.27
IA-LM,0.86,0.962,0.766,0.767,0.901,0.821,0.867,0.724,0.769,0.457,,,,,,0.998,0.613,0.745,0.29,0.423
COR-L23,0.931,0.77,0.951,0.741,0.805,1.03,1.07,1.18,1.11,0.899,,,,,,0.409,0.452,0.496,0.414,0.385
SW 900,,,,,,,,,,,0.616,0.485,,0.554,0.542,0.539,0.554,,0.517,0.289
SK-LU-1,1.3,1.09,1.27,0.945,0.6,0.915,0.832,0.664,0.803,0.82,,,,,,0.754,0.64,0.551,0.628,0.493
NCI-H1563,1.02,1,0.941,0.894,0.985,,,,,,,,,,,,,,,
NCI-H520,0.921,0.954,0.967,0.861,0.49,1.17,1.2,1.08,1.01,0.501,,,,,,0.782,0.649,0.681,0.696,0.617
NCI-H2342,,,,,,,,,,,0.506,0.498,0.419,0.408,0.484,0.702,0.922,0.744,0.837,0.859
